Test results from patent publication US11938137B2, “Lipid prodrugs of mycophenolic acid and uses thereof” (PureTech LYT, Inc., priority 2017, dated 2024).

Key:
[1] = Lymphatic transport assay in mesenteric lymph-duct cannulated rats; type: in vivo, rat; conditions: total MPA related compound, intraduodenal infusion, anesthetised mesenteric lymph-duct cannulated rats; class symbols
Procedure: In order to assess the lymphatic transport of disclosed lipid prodrugs in rats, the mesenteric lymph ducts of the rats used in this study were cannulated to allow continual collection of mesenteric lymph. Lipid formulations containing the compound of interest were then administered to the animals, lymph was collected, and drug concentrations in the lymph samples were quantified.
Lipid-based formulations of the compounds of the invention or control compounds were prepared as previously described (Trevaskis, N. L. et al., Pharmaceutical Research, 2005, 22(11), 1863-1870, WO 2016/023082, and WO 2017/041139, hereby incorporated by reference.
In brief, either 1 or 2 mg of test prodrug, 40 mg oleic acid and 25 mg Tween 80 were mixed in a glass vial and incubated at 37° C. for 12-18 h to equilibrate. An aqueous phase consisting of 5.6 ml phosphate buffered saline (PBS, pH 7.4) was subsequently added to the lipid phase (MPA was dissolved in PBS for the preparation of MPA containing formulations) and the formulation emulsified by ultrasonication with a Misonix XL 2020 ultrasonic processor (Misonix, Farmingdale, NY, USA) equipped with a 3.2-mm microprobe tip running at 30% of the maximal amplitude of 240 μm and a frequency of 20 kHz for 2 min at room temperature. Doses for administering to more than one animal can be prepared in one batch by suitably increasing the quantities given above. Drug/prodrug concentrations in all formulations were verified using HPLC-MS.
Male Sprague-Dawley (SD) rats were selected for the lymphatic transport studies. Rats (typically 240-320 g) were maintained on a standard diet and fasted overnight with free access to water prior to experiments.
Anesthetized rats were placed on a heated pad at 37° C. and cannulas inserted into the duodenum (for formulation administration and rehydration), mesenteric lymph duct (for lymph collection), and carotid artery (in cases where blood collection was conducted). Post-surgery, rats were re-hydrated for 0.5 h via intraduodenal infusion of normal saline at 2.8 mL/h. The lipid formulations were infused into the duodenum at 2.8 mL/h for 2 h after which, normal saline was infused at 2.8 mL/h for the remainder of the experiment. Lymph was continuously collected for up to 8 h into pre-weighed Eppendorf tubes containing 10 μL of 1,000 IU/mL heparin. The collection tubes were changed hourly and lymph flow was measured gravimetrically. Aliquots of hourly lymph samples were stored at −20° C. prior to assay.
Drug concentration in lymph is expressed as total drug and includes free drug and drug associated with different glycerides. Lymph samples are first treated with a lipase or other appropriate conditions to liberate free active agent prior to measurement of active agent levels in the lymph. Treatment with a lipase or other hydrolysis conditions liberates free active agent from any corresponding re-esterified glycerides. Porcine pancreatic lipase is appropriate for this purpose. Alternatively, hydrolysis with 0.5 M NaOH may be used. For MPA “phenol” prodrugs (i.e. prodrugs linked to the triglyceride at the aromatic —OH group of MPA), hydrolysis was performed with 0.5 M NaOH except for the lymph samples collected from 3 rats in the group of compound I-20 (MPA-O-C12α′βMe-TG), which were hydrolyzed by porcine pancreatic lipase.
Transport of compounds into lymph during each hourly collection period was calculated from the product of the volume of lymph collected and the measured concentrations in lymph. For fluorescently-labelled compounds such as a BDP-conjugate, the concentrations of total compound may be measured by fluorescence spectroscopy without hydrolysis.
The results of the lymphatic transport assays are summarized in Table 2, below, and FIGS. 1-19. Table 2 summarizes lymphatic transport of total MPA related compound (% of administered dose) following intraduodenal infusion to anaesthetised, mesenteric lymph-duct cannulated rats. […]

[2] = In vitro release of MPA from prodrugs in plasma supplemented with lipoprotein lipase (LPL); type: in vitro ADME, rat; conditions: for Percentage MPA release at 60 min in LPL supplemented rat plasma: n = 3 unless specified otherwise; for monoglyceride (MG) peak: after 180 min, rat plasma supplemented with LPL
Procedure: The percentage of MPA released at 60 minutes in LPL-supplemented rat plasma was also determined for selected compounds. […] The designation “**” indicates a release % of >25% to 50%. The designation “***” indicates a release % of >50% to 75%. The designation “****” indicates a release % of >75%.
In order to probe the release of free drug from TG prodrugs in the systemic circulation, prodrugs were incubated with plasma (rat, mouse, dog, pig or human) supplemented with lipoprotein lipase (LPL, 200 IU/ml). LPL is a key enzyme required for the hydrolysis of lipoprotein associated TG in the systemic circulation and is therefore expected to be a key contributor to lipolysis of the re-esterified drug-TG construct in plasma, largely via liberation of fatty acids in the sn-1 and the sn-3 position of the TG-mimetic, prior to drug release from the 2′ position via esterase hydrolysis. LPL is […] is tethered to the luminal surface of vascular endothelial cells under physiological conditions. In the current in vitro studies, plasma was therefore supplemented with LPL to better reflect the in vivo situation. To start hydrolysis, 10 μl of LPL solution (10,000 IU/ml) was added to a mixture of 10 μl of prodrug solution (1 mg/ml dissolved in acetonitrile) and 500 μl of blank plasma. The mixture was incubated at 37° C. Samples (20 μl) of the incubation solution were taken at 0, 5, 15, 30, 60, 90, 120 and 180 minutes post-incubation and added to 180 μl of MeCN to stop lipolysis. The mixture was vortexed and centrifuged at 4500×g for 5 minutes to precipitate proteins prior to analysis. The supernatant was analyzed by HPLC-MS/MS for the potential products (MG form, acid form, and free drug) of prodrug hydrolysis.

CCCCCCCCCCCCCCCC(=O)OCC(COC(=O)CCCCCCCCCCCCCCC)OC(=O)CC(C)CCCCCCCC(C)C(=O)Oc1c(C/C=C(\C)CCC(=O)OC)c(OC)c(C)c2c1C(=O)OC2 (centres unmarked) [I-20]
Cumulative lymphatic transport % dose (Mean ± SD, or Range if n = 2) [1]: A (greater than 10% (>10%))
Percentage MPA release at 60 min in LPL supplemented rat plasma [2]: *** (a release % of >50% to 75%)
monoglyceride (MG) peak [2]: almost completely disappeared

CCCCCCCCCCCCCCCC(=O)OCC(COC(=O)CCCCCCCCCCCCCCC)OC(=O)CC(C)CCCCCCCC(C)C(=O)OCCCCC(=O)Oc1c(C/C=C(\C)CCC(=O)OC)c(OC)c(C)c2c1C(=O)OC2 (centres unmarked) [I-22, (E)-12-(1,3-Bis(palmitoyloxy)propan-2-yl) 1-(5-((6-methoxy-5-(6-methoxy-3-methyl-6-oxohex-2-en-1-yl)-7-methyl-3-oxo-1,3-dihydroisobenzofuran-4-yl)oxy)-5-oxopentyl) 2,10-dimethyldodecanedioate]
Cumulative lymphatic transport % dose (Mean ± SD, or Range if n = 2) [1]: A (greater than 10% (>10%))
Percentage MPA release at 60 min in LPL supplemented rat plasma [2]: *** (a release % of >50% to 75%)
monoglyceride (MG) peak [2]: almost completely disappeared

CCCCCCCCCCCCCCCC(=O)OCC(COC(=O)CCCCCCCCCCCCCCC)OC(=O)C(C)CCCCCCCC(=O)Oc1c(C/C=C(\C)CCC(=O)OC)c(OC)c(C)c2c1C(=O)OC2 (centres unmarked) [I-45]
Cumulative lymphatic transport % dose (Mean ± SD, or Range if n = 2) [1]: A (greater than 10% (>10%))

CCCCCCCCCCCCCCCC(=O)OCC(COC(=O)CCCCCCCCCCCCCCC)OC(=O)CCCCCCCCCOC(=O)CC/C(C)=C/Cc1c(O)c2c(c(C)c1OC)COC2=O [I-46]
Cumulative lymphatic transport % dose (Mean ± SD, or Range if n = 2) [1]: A (greater than 10% (>10%))

CCCCCCCCCCCCCCCC(=O)OCC(COC(=O)CCCCCCCCCCCCCCC)OC(=O)CCCCCCCCCCC(=O)Oc1cc(C)cc(C)c1C(C)(C)CC(=O)Oc1c(C/C=C(\C)CCC(=O)OC)c(OC)c(C)c2c1C(=O)OC2 [I-47]
Cumulative lymphatic transport % dose (Mean ± SD, or Range if n = 2) [1]: B (between 1% and 10% (1%-10%))

CCCCCCCCCCCCCCCC(=O)OCC(COC(=O)CCCCCCCCCCCCCCC)OC(=O)CCCCCCCCCC(=O)Oc1c(C/C=C(\C)CCC(=O)OC)c(OC)c(C)c2c1C(=O)OC2 [I-48]
Cumulative lymphatic transport % dose (Mean ± SD, or Range if n = 2) [1]: A (greater than 10% (>10%))

CCCCCCCCCCCCCCCC(=O)OCC(COC(=O)CCCCCCCCCCCCCCC)OC(=O)CC(C)CCCCCCCOC(=O)CC/C(C)=C/Cc1c(O)c2c(c(C)c1OC)COC2=O (centres unmarked) [I-50, (E)-2-((10-((6-(4-hydroxy-6-methoxy-7-methyl-3-oxo-1,3-dihydroisobenzofuran-5-yl)-4-methylhex-4-enoyl)oxy)-3-methyldecanoyl)oxy)propane-1,3-diyl dipalmitate]
Cumulative lymphatic transport % dose (Mean ± SD, or Range if n = 2) [1]: A (greater than 10% (>10%))

CCCCCCCCCCCCCCCC(=O)OCC(COC(=O)CCCCCCCCCCCCCCC)OC(=O)CC(C)CCCCCCCCCOC(=O)CC/C(C)=C/Cc1c(O)c2c(c(C)c1OC)COC2=O (centres unmarked) [I-51, (E)-2-((12-((6-(4-hydroxy-6-methoxy-7-methyl-3-oxo-1,3-dihydroisobenzofuran-5-yl)-4-methylhex-4-enoyl)oxy)-3-methyldodecanoyl)oxy)propane-1,3-diyl dipalmitate]
Cumulative lymphatic transport % dose (Mean ± SD, or Range if n = 2) [1]: A (greater than 10% (>10%))

CCCCCCCCCCCCCCCC(=O)OCC(COC(=O)CCCCCCCCCCCCCCC)OC(=O)C(C)CCCCCCCCC(C)C(=O)Oc1cc(C)cc(C)c1C(C)(C)CC(=O)Oc1c(C/C=C(\C)CCC(=O)OC)c(OC)c(C)c2c1C(=O)OC2 (centres unmarked) [I-52]
Cumulative lymphatic transport % dose (Mean ± SD, or Range if n = 2) [1]: B (between 1% and 10% (1%-10%))

CCCCCCCCCCCCCCCC(=O)OCC(COC(=O)CCCCCCCCCCCCCCC)OC(=O)CC(C)CCCC(=O)Oc1c(C/C=C(\C)CCC(=O)OC)c(OC)c(C)c2c1C(=O)OC2 (centres unmarked) [I-53]
Cumulative lymphatic transport % dose (Mean ± SD, or Range if n = 2) [1]: A (greater than 10% (>10%))

CCCCCCCCCCCCCCCC(=O)OCC(COC(=O)CCCCCCCCCCCCCCC)OC(=O)CC(C)CCCCCCCC(C)C(=O)Oc1ccc(COc2c(C/C=C(\C)CCC(=O)OC)c(OC)c(C)c3c2C(=O)OC3)cc1 (centres unmarked) [I-54, (E)-12-(1,3-bis(palmitoyloxy)propan-2-yl) 1-(4-(((6-methoxy-5-(6-methoxy-3-methyl-6-oxohex-2-en-1-yl)-7-methyl-3-oxo-1,3-dihydroisobenzofuran-4-yl)oxy)methyl)phenyl) 2,10-dimethyldodecanedioate]
Cumulative lymphatic transport % dose (Mean ± SD, or Range if n = 2) [1]: B (between 1% and 10% (1%-10%))

CCCCCCCCCCCCCCCC(=O)OCC(COC(=O)CCCCCCCCCCCCCCC)OC(=O)CCCCCCCCCCCCCC(=O)Oc1c(C/C=C(\C)CCC(=O)OC)c(OC)c(C)c2c1C(=O)OC2 [I-57, (E)-1-(1,3-bis(palmitoyloxy)propan-2-yl) 15-(6-methoxy-5-(6-methoxy-3-methyl-6-oxohex-2-en-1-yl)-7-methyl-3-oxo-1,3-dihydroisobenzofuran-4-yl) pentadecanedioate]
Cumulative lymphatic transport % dose (Mean ± SD, or Range if n = 2) [1]: A (greater than 10% (>10%))

CCCCCCCCCCCCCCCC(=O)OCC(COC(=O)CCCCCCCCCCCCCCC)OC(=O)CC(C)CCCCCCCC(C)C(=O)OC(C)Oc1c(C/C=C(\C)CCC(=O)OC)c(OC)c(C)c2c1C(=O)OC2 (centres unmarked) [I-58, (E)-12-(1,3-bis(palmitoyloxy)propan-2-yl) 1-(1-((6-methoxy-5-(6-methoxy-3-methyl-6-oxohex-2-en-1-yl)-7-methyl-3-oxo-1,3-dihydroisobenzofuran-4-yl)oxy)ethyl) 2,10-dimethyldodecanedioate]
Cumulative lymphatic transport % dose (Mean ± SD, or Range if n = 2) [1]: A (greater than 10% (>10%))

CCCCCCCCCCCCCCCC(=O)OCC(COC(=O)CCCCCCCCCCCCCCC)OC(=O)C(C)CCCCCCCCCC(=O)Oc1c(C/C=C(\C)CCC(=O)OC)c(OC)c(C)c2c1C(=O)OC2 (centres unmarked) [I-60]
Cumulative lymphatic transport % dose (Mean ± SD, or Range if n = 2) [1]: A (greater than 10% (>10%))

CCCCCCCCCCCCCCCC(=O)OCC(COC(=O)CCCCCCCCCCCCCCC)OC(=O)C(C)CCCCCCC(C)C(=O)Oc1c(C/C=C(\C)CCC(=O)OC)c(OC)c(C)c2c1C(=O)OC2 (centres unmarked) [I-61]
Cumulative lymphatic transport % dose (Mean ± SD, or Range if n = 2) [1]: A (greater than 10% (>10%))

CCCCCCCCCCCCCCCC(=O)OCC(COC(=O)CCCCCCCCCCCCCCC)OC(=O)CC(C)CCCCCCCC(C)C(=O)OCCCC(=O)Oc1c(C/C=C(\C)CCC(=O)OC)c(OC)c(C)c2c1C(=O)OC2 (centres unmarked) [I-62, (E)-12-(1,3-bis(palmitoyloxy)propan-2-yl) 1-(4-((6-methoxy-5-(6-methoxy-3-methyl-6-oxohex-2-en-1-yl)-7-methyl-3-oxo-1,3-dihydroisobenzofuran-4-yl)oxy)-4-oxobutyl) 2,10-dimethyldodecanedioate]
Cumulative lymphatic transport % dose (Mean ± SD, or Range if n = 2) [1]: A (greater than 10% (>10%))
